≈ marks a conversion by molar mass, not a printed value.
Columns and labels:
[1] = Thermodynamic solubility in phosphate buffer at pH 7.4 at 2 mg incubated under shaking condition for 6 hrs followed by rechecking and readjusting pH to 7.4 and further incubated for 18 hrs by HPLC/UV detection method; type: physicochemical; conditions: read-out: Therm_solubility
[2] = Intrinsic clearance in human liver microsomes assessed per mg protein in presence of NADPH by UPLC analysis; type: ADME, Microsome; conditions: read-out: CLH
[3] = target: T1, Poly [ADP-ribose] polymerase tankyrase-1 (Homo sapiens, UniProt O95271); parameters: species or system Sf9
T1 sequence (O95271 whole entry): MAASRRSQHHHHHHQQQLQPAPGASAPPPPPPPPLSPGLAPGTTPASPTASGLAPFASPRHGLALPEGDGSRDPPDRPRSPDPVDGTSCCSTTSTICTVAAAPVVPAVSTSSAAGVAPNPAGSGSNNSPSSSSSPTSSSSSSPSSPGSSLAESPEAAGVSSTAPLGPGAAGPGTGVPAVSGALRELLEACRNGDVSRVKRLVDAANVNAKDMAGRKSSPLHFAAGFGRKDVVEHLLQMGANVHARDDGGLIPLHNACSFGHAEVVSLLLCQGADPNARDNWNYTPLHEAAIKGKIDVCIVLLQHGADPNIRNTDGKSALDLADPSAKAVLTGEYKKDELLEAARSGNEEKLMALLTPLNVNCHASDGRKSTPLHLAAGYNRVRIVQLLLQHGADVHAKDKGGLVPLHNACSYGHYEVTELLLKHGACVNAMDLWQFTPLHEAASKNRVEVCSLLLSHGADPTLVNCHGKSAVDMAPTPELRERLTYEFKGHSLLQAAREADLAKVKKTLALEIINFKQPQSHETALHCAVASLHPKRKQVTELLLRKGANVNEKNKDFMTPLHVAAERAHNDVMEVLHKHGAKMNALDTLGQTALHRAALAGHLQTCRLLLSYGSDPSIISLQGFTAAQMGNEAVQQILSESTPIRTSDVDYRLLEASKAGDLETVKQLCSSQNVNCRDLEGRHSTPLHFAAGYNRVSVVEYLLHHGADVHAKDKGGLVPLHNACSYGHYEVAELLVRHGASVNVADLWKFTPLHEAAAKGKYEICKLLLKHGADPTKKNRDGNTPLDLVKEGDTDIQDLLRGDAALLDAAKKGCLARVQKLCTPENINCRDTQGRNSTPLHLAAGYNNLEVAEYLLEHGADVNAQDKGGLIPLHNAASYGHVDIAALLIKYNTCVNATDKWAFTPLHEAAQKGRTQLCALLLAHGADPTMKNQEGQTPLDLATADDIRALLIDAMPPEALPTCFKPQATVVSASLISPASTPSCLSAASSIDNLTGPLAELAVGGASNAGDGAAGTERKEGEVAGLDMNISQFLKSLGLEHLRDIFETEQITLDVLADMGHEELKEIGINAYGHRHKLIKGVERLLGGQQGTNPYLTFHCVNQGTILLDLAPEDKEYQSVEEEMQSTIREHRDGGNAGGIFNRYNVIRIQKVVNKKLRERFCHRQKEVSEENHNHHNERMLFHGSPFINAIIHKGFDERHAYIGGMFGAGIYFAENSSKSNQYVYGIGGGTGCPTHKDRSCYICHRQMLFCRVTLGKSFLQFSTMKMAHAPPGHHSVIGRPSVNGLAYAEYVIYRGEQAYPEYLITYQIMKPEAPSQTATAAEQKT

[4] = target: T2, Poly [ADP-ribose] polymerase 1 (Homo sapiens, UniProt P09874); experiment: (§1) Inhibition of recombinant human full-length Myc/His-tagged Parp-1 expressed in baculovirus infected Sf21 insect cells assessed as reduction in auto-PARsylation using activated DNA as substrate incubated for 150 mins in presence of NAD and bio-NAD as co-substrate by TR-FRET assay
[5] = Intrinsic clearance in mouse liver microsomes assessed per mg protein in presence of NADPH by UPLC analysis; type: ADME, Microsome; conditions: read-out: CLH
[6] = target: T2, Poly [ADP-ribose] polymerase 1; experiment: as §1, with “auto-PARsylation at 10 uM” for “auto-PARsylation”, “assay relative to control” for “assay”
[7] = target: T3, Poly [ADP-ribose] polymerase tankyrase-2 (Homo sapiens, UniProt Q9H2K2); experiment: biochemical
T3 sequence (Q9H2K2 whole entry): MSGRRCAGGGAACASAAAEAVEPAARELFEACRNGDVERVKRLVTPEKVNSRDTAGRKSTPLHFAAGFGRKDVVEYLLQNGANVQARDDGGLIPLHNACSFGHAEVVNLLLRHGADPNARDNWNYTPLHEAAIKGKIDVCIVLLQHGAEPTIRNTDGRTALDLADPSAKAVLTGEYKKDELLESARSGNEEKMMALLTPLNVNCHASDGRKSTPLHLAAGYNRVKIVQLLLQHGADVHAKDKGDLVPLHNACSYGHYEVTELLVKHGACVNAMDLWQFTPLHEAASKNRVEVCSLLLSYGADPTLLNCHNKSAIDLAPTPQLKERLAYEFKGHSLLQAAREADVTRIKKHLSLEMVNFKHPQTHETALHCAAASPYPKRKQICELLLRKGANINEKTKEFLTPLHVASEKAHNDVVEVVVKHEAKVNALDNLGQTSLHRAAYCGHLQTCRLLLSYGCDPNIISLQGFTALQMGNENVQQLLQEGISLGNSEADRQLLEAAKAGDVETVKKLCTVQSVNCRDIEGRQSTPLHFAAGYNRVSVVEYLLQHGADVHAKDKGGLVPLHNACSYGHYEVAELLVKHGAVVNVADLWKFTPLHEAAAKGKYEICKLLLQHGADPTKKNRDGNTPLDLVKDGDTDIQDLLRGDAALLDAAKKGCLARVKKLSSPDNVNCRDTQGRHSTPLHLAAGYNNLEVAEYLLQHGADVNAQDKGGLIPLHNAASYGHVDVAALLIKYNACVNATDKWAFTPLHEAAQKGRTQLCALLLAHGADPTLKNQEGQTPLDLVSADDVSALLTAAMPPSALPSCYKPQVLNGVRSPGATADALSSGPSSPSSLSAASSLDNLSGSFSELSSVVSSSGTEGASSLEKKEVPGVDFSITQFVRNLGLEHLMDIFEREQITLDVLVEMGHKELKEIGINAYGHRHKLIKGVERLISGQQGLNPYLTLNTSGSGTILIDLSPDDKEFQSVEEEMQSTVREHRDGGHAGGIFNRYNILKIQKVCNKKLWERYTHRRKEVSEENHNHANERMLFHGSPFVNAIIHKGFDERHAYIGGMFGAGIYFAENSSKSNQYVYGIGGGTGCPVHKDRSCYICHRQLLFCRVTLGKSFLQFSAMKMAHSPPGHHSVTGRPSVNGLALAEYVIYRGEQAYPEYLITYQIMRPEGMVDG
Description: Inhibition of GST tagged-TEV cleavage site-fused human recombinant TNKS2 (873 to 1166 residues) expressed in baculovirus infected sf9 cells assessed as reduction in auto-PARsylation incubated for 60 mins in presence of bio-NAD as co-substrate by ELISA

Tankyrase 1/2 = target: T4, Tankyrase 1/2 (Homo sapiens, UniProt Q9H2K2+O95271)
T4 sequence (Q9H2K2 whole entry): T3 sequence (Q9H2K2 whole entry)
T4 sequence (O95271 whole entry): T1 sequence (O95271 whole entry)
Description: Inhibition of tankyrase 1/2 in human DLD1 cells assessed as increase in axin2 accumulation incubated for 24 hrs by luminex based bead assay

[8] = target: T1, Poly [ADP-ribose] polymerase tankyrase-1; experiment: biochemical
Description: Inhibition of GST tagged-TEV cleavage site-fused human recombinant TNKS1 (1023 to 1327 residues) expressed in baculovirus infected Sf9 cells assessed as reduction in auto-PARsylation incubated for 90 mins in presence of bio-NAD as co-substrate by TR-FRET assay

[9] = target: T3, Poly [ADP-ribose] polymerase tankyrase-2; experiment: biochemical; remark: listed apart in the source
Description: Inhibition of GST tagged-TEV cleavage site-fused human recombinant TNKS2 (873 to 1166 residues) expressed in baculovirus infected Sf9 cells assessed as reduction in auto-PARsylation incubated for 90 mins in presence of bio-NAD as co-substrate by TR-FRET assay

T2 sequence (P09874 whole entry): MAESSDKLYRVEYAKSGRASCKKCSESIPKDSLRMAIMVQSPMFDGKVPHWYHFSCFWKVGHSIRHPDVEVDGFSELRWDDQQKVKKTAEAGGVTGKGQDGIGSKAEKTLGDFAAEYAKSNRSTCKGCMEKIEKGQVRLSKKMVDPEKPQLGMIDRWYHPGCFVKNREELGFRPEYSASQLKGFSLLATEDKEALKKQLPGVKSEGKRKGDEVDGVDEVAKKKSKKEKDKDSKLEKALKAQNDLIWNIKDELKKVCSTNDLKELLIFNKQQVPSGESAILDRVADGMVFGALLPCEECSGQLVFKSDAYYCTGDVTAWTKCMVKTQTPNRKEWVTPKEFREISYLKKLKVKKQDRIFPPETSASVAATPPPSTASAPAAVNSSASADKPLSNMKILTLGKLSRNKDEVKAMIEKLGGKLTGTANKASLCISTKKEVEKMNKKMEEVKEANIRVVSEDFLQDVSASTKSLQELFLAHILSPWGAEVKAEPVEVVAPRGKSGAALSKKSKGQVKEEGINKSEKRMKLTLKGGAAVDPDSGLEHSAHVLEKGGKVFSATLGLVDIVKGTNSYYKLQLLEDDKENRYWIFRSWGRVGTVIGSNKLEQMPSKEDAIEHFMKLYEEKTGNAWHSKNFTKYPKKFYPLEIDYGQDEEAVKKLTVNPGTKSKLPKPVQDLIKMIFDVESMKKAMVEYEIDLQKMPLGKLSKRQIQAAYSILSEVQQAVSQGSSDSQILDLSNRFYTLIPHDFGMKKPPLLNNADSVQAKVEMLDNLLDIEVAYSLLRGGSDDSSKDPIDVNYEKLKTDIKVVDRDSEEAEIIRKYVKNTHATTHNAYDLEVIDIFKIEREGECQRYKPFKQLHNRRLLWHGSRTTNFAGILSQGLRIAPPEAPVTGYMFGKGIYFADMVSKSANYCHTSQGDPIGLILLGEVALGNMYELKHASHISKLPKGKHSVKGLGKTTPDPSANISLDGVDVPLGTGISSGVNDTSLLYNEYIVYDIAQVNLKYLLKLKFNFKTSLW

SMILES	solubility thermodynamic at 24 h [1]	microsomal CLint [2]	IC50 [3]	IC50 [4]	microsomal CLint [5]	inhibition [6]	IC50 [7]	EC50 (Tankyrase 1/2)	IC50 [8]	IC50 [9]
CN1CCN(c2ccc(-c3nc4ccc(F)cc4c(=O)[nH]3)cc2)CC1	6 µg/mL (≈ 17.7 µM)	< 10 µL/min/mg	12 nM	370 nM	44 µL/min/mg	–	–	–	–	–
CC(C)(O)c1ccc(-c2nc3ccc(F)c(F)c3c(=O)[nH]2)cc1	25 µg/mL (≈ 79 µM)	< 10 µL/min/mg	7 nM	512 nM	23 µL/min/mg	–	–	–	–	–
Cc1cc(F)cc2c(=O)[nH]c(-c3ccc(N4CCN(C)CC4)cc3)nc12	4 µg/mL (≈ 11.4 µM)	14 µL/min/mg	1.5 nM	120 nM	138 µL/min/mg	–	–	–	–	–
CC(C)(C)c1ccc(-c2nc3ccccc3c(=O)[nH]2)cc1	< 1 µg/mL	19 µL/min/mg	7.9 nM	> 10000 nM	< 10 µL/min/mg	35%	8.7 nM	1500 nM	–	–
Cc1cc(F)cc2c(=O)[nH]c(-c3ccc(C(C)(C)OCCO)cc3)nc12	–	37 µL/min/mg	1.6 nM	790 nM	180 µL/min/mg	–	–	–	–	–
CC(C)(OCCO)c1ccc(-c2nc3ccc(F)cc3c(=O)[nH]2)cc1	23 µg/mL (≈ 67.2 µM)	< 10 µL/min/mg	10 nM	2300 nM	32 µL/min/mg	–	–	–	–	–
CN1CCC(c2ccc(-c3nc4c(F)cc(F)cc4c(=O)[nH]3)cc2)CC1.O=C(O)C(F)(F)F	65 µg/mL	< 10 µL/min/mg	31 nM	3700 nM	39 µL/min/mg	–	31 nM	3900 nM	–	–
CC(C)(O)c1ccc(-c2nc3ccc(Cl)cc3c(=O)[nH]2)cc1	–	–	23 nM	1400 nM	–	–	–	–	–	–
Cl.O=c1[nH]c(-c2ccc(C3CCNCC3)cc2)nc2c(F)cc(F)cc12	57 µg/mL	< 10 µL/min/mg	15 nM	–	< 10 µL/min/mg	–	–	–	–	–
CC(C)(C)c1ccc(-c2nc3ccc(F)cc3c(=O)[nH]2)cc1	< 1 µg/mL	70 µL/min/mg	3.3 nM	3900 nM	> 1000 µL/min/mg	–	–	–	–	–
Cc1cc(F)cc2c(=O)[nH]c(-c3ccc(C4CCN(C)CC4)cc3)nc12	5 µg/mL (≈ 14.2 µM)	< 10 µL/min/mg	2.2 nM	620 nM	422 µL/min/mg	–	2.2 nM	50 nM	–	–
COCCOC(C)(C)c1ccc(-c2nc3ccc(F)cc3c(=O)[nH]2)cc1	6 µg/mL (≈ 16.8 µM)	41 µL/min/mg	24 nM	5700 nM	126 µL/min/mg	–	–	–	–	–
CC(C)(O)c1ccc(-c2nc3cccc(Cl)c3c(=O)[nH]2)cc1	–	–	35 nM	4300 nM	–	–	–	–	–	–
Cc1cc(F)cc2c(=O)[nH]c(-c3ccc(C(C)(C)O)cc3)nc12	1 µg/mL (≈ 3.2 µM)	< 10 µL/min/mg	0.8 nM	60 nM	180 µL/min/mg	–	–	–	–	–
CC(C)(O)c1ccc(-c2nc3ccc(F)cc3c(=O)[nH]2)nc1	–	15 µL/min/mg	1000 nM	2500 nM	< 10 µL/min/mg	–	–	–	–	–
COc1ccc(-c2nc3ccccc3c(=O)[nH]2)cc1	4 µg/mL (≈ 15.9 µM)	217 µL/min/mg	–	–	630 µL/min/mg	–	–	–	–	–
O=c1[nH]c(-c2ccc3c(c2)OCO3)nc2ccccc12	1 µg/mL (≈ 3.76 µM)	83 µL/min/mg	–	1700 nM	346 µL/min/mg	–	–	> 30000 nM	430 nM	620 nM

Results, then the compound that gave them:

solubility thermodynamic at 24 h [1]	microsomal CLint [2]	IC50 [3]	IC50 [4]	microsomal CLint [5]	inhibition [6]	IC50 [7]	EC50 (Tankyrase 1/2)	IC50 [8]	IC50 [9]	SMILES
15 µg/mL (≈ 50.3 µM)	< 10 µL/min/mg	14 nM	1100 nM	26 µL/min/mg	–	–	–	–	–	CC(C)(O)c1ccc(-c2nc3c(F)cccc3c(=O)[nH]2)cc1
5 µg/mL (≈ 15.8 µM)	< 10 µL/min/mg	26 nM	1300 nM	< 10 µL/min/mg	–	–	–	–	–	CC(C)(O)c1ccc(-c2nc3c(F)ccc(F)c3c(=O)[nH]2)cc1
–	23 µL/min/mg	11 nM	410 nM	49 µL/min/mg	–	–	–	–	–	CC(C)(O)c1ccc(-c2nc3c(Cl)cccc3c(=O)[nH]2)cc1
153 µg/mL (≈ 493 µM)	12 µL/min/mg	35 nM	630 nM	45 µL/min/mg	–	–	–	–	–	COc1cccc2c(=O)[nH]c(-c3ccc(C(C)(C)O)cc3)nc12
20 µg/mL (≈ 67 µM)	< 10 µL/min/mg	17 nM	830 nM	11 µL/min/mg	–	–	–	–	–	CC(C)(O)c1ccc(-c2nc3cccc(F)c3c(=O)[nH]2)cc1
4 µg/mL (≈ 13.6 µM)	< 10 µL/min/mg	1.2 nM	79 nM	81 µL/min/mg	–	–	–	–	–	Cc1cccc2c(=O)[nH]c(-c3ccc(C(C)(C)O)cc3)nc12
38 µg/mL (≈ 136 µM)	15 µL/min/mg	15 nM	910 nM	46 µL/min/mg	–	13 nM	1300 nM	–	–	CC(C)(O)c1ccc(-c2nc3ccccc3c(=O)[nH]2)cc1
29 µg/mL (≈ 97.2 µM)	< 10 µL/min/mg	12.5 nM	349 nM	25 µL/min/mg	–	–	–	–	–	CC(C)(O)c1ccc(-c2nc3ccc(F)cc3c(=O)[nH]2)cc1

— ChEMBL document CHEMBL4321794, “Discovery and Optimization of 2-Arylquinazolin-4-ones into a Potent and Selective Tankyrase Inhibitor Modulating Wnt Pathway Activity” (J Med Chem, 2019)
